Results from article PMC3531252 (EJNMMI Research, 2012).

Tests used:
[1] = metabolite analysis of plasma by radio-HPLC during PET; format: in vivo, cynomolgus monkey
Description: During each PET measurement, venous blood samples were taken from a femoral vein for the measurement of [^11 C]
From the obtained blood samples, plasma was obtained after centrifugation at 2,000 × g for 2 to 4 min and was mixed with 1.4 times the volume of acetonitrile. The supernatant acetonitrile-plasma mixture obtained after centrifugation at 2,000 × g for 2 to 4 min was injected into the radio-HPLC system. HPLC analysis was performed on a Waters μ-Bondapak-C18 column (300 × 7.8 mm, 10 μm) by gradient elution using (a) ammonium formate (100 mM) and (b) acetonitrile at 6.0 mL/min.

GlyT1 [2] = test: PET measurements using a cynomolgus monkey; format: in vivo
Description: PET measurements were performed for 123 min immediately after intravenous (i.v.) injection of radioligand at baseline and after pretreatment with SSR504734. SSR504734 was administered over 15 min, starting 30 min before the radioligand injection. PET measurements were performed on two separate days at a 6-week interval. One baseline PET measurement and one PET measurement after pretreatment with 0.1 mg/kg of SSR504734 were performed on the first day. One baseline PET measurement and two PET measurements after pretreatment with 0.5 and 1.5 mg/kg of SSR504734 were performed on the second day.
Regions of interest (ROI) for the thalamus, cerebellum, caudate, putamen, frontal cortex, temporal cortex, anterior cingulate cortex, pons, white matter, and the whole-brain contour were delineated on PET/MRI co-registered brain images for each monkey. […] PET data were analyzed using several parameters such as percent injected dose (%ID) and percent standard uptake value (%SUV), where

GlyT1 [3] = test: PET measurements using rhesus monkeys, VT by two-tissue compartment model; format: in vivo, rhesus monkey; set-up: VT (baseline) WB / VT (baseline) THA / VT (baseline) CB / VT (baseline) CAU / VT (baseline) FC / VT (baseline) ACC / VT (baseline) TC: unit not given here; conditions: for VT (baseline) ACC / VT (baseline) CAU / VT (baseline) CB / VT (baseline) FC / VT (baseline) Pons / VT (baseline) PUT / VT (baseline) TC / VT (baseline) THA / VT (baseline) WB: 2TC
Description: PET measurements were performed using a high-resolution research tomograph (CTI/Siemens Molecular Imaging, Knoxville, TN, USA) with an in-plane resolution less than 1.5 mm FWHM in the center of the FOV [30]. PET data were acquired by list mode. The data were reconstructed with a series of frames (5 × 1 min, 5 × 3 min, 5 × 6 min, and 13 × 10 min) using the Ordinary Poisson-3D-Ordered Subset Expectation Maximization (OP03D-OSEM) algorithm with 10 iterations and 16 subsets including modeling of the points spread function. Image reconstruction was performed on a quad-core PC running a fast reconstruction algorithm.
Anesthesia was induced by intramuscular injection of ketamine hydrochloride (60 mg) and maintained by the administration of a mixture of sevoflurane, O2, and medical air after endotracheal intubation. The head was immobilized with a fixation device. Body temperature was maintained by Bair Hugger Model 505 (Arizant Healthcare, MN, USA) and monitored by an esophageal thermometer. ECG, heart rate, respiratory rate, and oxygen saturation were continuously monitored throughout the experiments. Blood pressure was monitored every 5 min.
(§1) PET measurements were performed for 123 min immediately after i.v. injection of radioligand at baseline and after pretreatment with SSR504734. SSR504734 was administered over 15 min, starting 30 min before the radioligand injection. PET measurements were performed on two separate days with two monkeys. One baseline PET measurement and one PET measurement after pretreatment with 1.5 mg/kg of SSR504734 were performed on one monkey. One baseline PET measurement and one PET measurement after pretreatment with 4.5 mg/kg were performed on the other monkey.
During each PET measurement, arterial blood was collected continuously for 3 min using an automated blood-sampling system at a speed of 3.0 mL/min (Allog AB, Molndal, Sweden). Blood samples (1.0 to 2.5 mL) were drawn at 4, 15, 30, 60, 90, and 120 min after the radioligand injection for blood and plasma radioactivity and metabolite correction.
Regions of interest (ROI) for the thalamus, cerebellum, caudate, putamen, frontal cortex, temporal cortex, anterior cingulate cortex, pons, white matter, and the whole-brain contour were delineated on PET/MRI co-registered brain images for each monkey. Co-registrations and ROI delineations were performed using PMOD 3.0 (Pixel-Wise Modeling Computer Software, PMOD Group, Zurich, Switzerland). PET data were analyzed using several parameters such as percent injected dose (%ID) and percent standard uptake value (%SUV), where
%ID=total radioactivity in the whole brain (MBq)/injected radioactivity (MBq)×100
%SUV=radioactivity (MBq/cc)/injected radioactivity (MBq)×body weight g×100.
In the PET measurements using rhesus monkeys, the total distribution volume (VT) was calculated by a two-tissue compartment model as well.

GlyT1 [4] = test: GlyT1 occupancy and VND by Lassen plot, PET in rhesus monkeys; format: in vivo, rhesus monkey; conditions: for % of VND in VT ACC: anterior cingulate cortex; for % of VND in VT FC: frontal cortex; for % of VND in VT PUT: putamen; for % of VND in VT TC: temporal cortex
Description: as §1
GlyT1 occupancy was estimated by applying Lassen plot approach, which can determine nondisplaceable distribution volume (VND) and occupancy using VT values at baseline and after pretreatment. Seven regions (the pons, cerebellum, putamen, frontal cortex, caudate, anterior cingulate cortex, and temporal cortex) were used for the plot.

[5] = baseline + blocking (1.5 mg/kg)
[6] = baseline + blocking (4.5 mg/kg)

## [11CH3]N1CCCCC1[C@@H](NC(=O)c1cccc(C(F)(F)F)c1Cl)c1ccccc1 (stereo partly drawn) [[^11 C]N-methyl-SSR504734, 2-chloro N-[(S)-{(S)-1-[^11 C]methylpiperidin-2-yl} (phenyl)methyl] 3-trifluoromethyl-benzamide]
[1]; radiochromatograms, 4 and 90 min
  metabolites detected in the plasma: more hydrophilic metabolites
[1]; within 90 min after injection
  fraction metabolized in plasma: over 70%
GlyT1 [2]; baseline
  rank order of regional brain uptake: thalamus > pons > cerebellum ≒ putamen > cortical regions > white matter
GlyT1 [2]; baseline, N = 2
  time of whole brain peak: 24 min
GlyT1 [2]; pretreatment 0.1 to 1.5 mg/kg SSR504734, dose-dependent
  radioactivity level in brain after pretreatment with SSR504734: increased in all regions
GlyT1 [3]; baseline
  rank order of regional brain uptake: thalamus > pons > putamen > frontal cortex≒temporal cortex > cerebellum> > white matter
GlyT1 [3]; pretreatment 1.5 and 4.5 mg/kg SSR504734
  uptake in the brain regions after pretreatment with SSR504734: increase
GlyT1 [3]; rhesus monkey 1, anterior cingulate cortex
  VT (baseline) ACC: 28.6
GlyT1 [3]; rhesus monkey 1, anterior cingulate cortex, after SSR504734 1.5 mg/kg
  VT (Blocking (1.5 mg/kg)) ACC: 22.5
GlyT1 [3]; rhesus monkey 1, anterior cingulate cortex, baseline to blocking with SSR504734 1.5 mg/kg
  % decrease of VT ACC: 21.3%
GlyT1 [3]; rhesus monkey 1, caudate
  VT (baseline) CAU: 26.2
GlyT1 [3]; rhesus monkey 1, caudate, after SSR504734 1.5 mg/kg
  VT (Blocking (1.5 mg/kg)) CAU: 22.0
GlyT1 [3]; rhesus monkey 1, caudate, baseline to blocking with SSR504734 1.5 mg/kg
  % decrease of VT CAU: 16.0%
GlyT1 [3]; rhesus monkey 1, cerebellum
  VT (baseline) CB: 23.7
GlyT1 [3]; rhesus monkey 1, cerebellum, after SSR504734 1.5 mg/kg
  VT (Blocking (1.5 mg/kg)) CB: 20.4
GlyT1 [3]; rhesus monkey 1, cerebellum, baseline to blocking with SSR504734 1.5 mg/kg
  % decrease of VT CB: 13.9%
GlyT1 [3]; rhesus monkey 1, frontal cortex
  VT (baseline) FC: 25.2
GlyT1 [3]; rhesus monkey 1, frontal cortex, after SSR504734 1.5 mg/kg
  VT (Blocking (1.5 mg/kg)) FC: 20.6
GlyT1 [3]; rhesus monkey 1, frontal cortex, baseline to blocking with SSR504734 1.5 mg/kg
  % decrease of VT FC: 18.3%
GlyT1 [3]; rhesus monkey 1, pons
  VT (baseline) Pons: 35.2
GlyT1 [3]; rhesus monkey 1, pons, after SSR504734 1.5 mg/kg
  VT (Blocking (1.5 mg/kg)) Pons: 26.8
GlyT1 [3]; rhesus monkey 1, pons, baseline to blocking with SSR504734 1.5 mg/kg
  % decrease of VT Pons: 23.9%
GlyT1 [3]; rhesus monkey 1, putamen
  VT (baseline) PUT: 26.7
GlyT1 [3]; rhesus monkey 1, putamen, after SSR504734 1.5 mg/kg
  VT (Blocking (1.5 mg/kg)) PUT: 22.8
GlyT1 [3]; rhesus monkey 1, putamen, baseline to blocking with SSR504734 1.5 mg/kg
  % decrease of VT PUT: 14.6%
GlyT1 [3]; rhesus monkey 1, temporal cortex
  VT (baseline) TC: 25.6
GlyT1 [3]; rhesus monkey 1, temporal cortex, after SSR504734 1.5 mg/kg
  VT (Blocking (1.5 mg/kg)) TC: 21.8
GlyT1 [3]; rhesus monkey 1, temporal cortex, baseline to blocking with SSR504734 1.5 mg/kg
  % decrease of VT TC: 14.8%
GlyT1 [3]; rhesus monkey 1, thalamus
  VT (baseline) THA: 31.0
GlyT1 [3]; rhesus monkey 1, thalamus, after SSR504734 1.5 mg/kg
  VT (Blocking (1.5 mg/kg)) THA: 29.6
GlyT1 [3]; rhesus monkey 1, thalamus, baseline to blocking with SSR504734 1.5 mg/kg
  % decrease of VT THA: 4.5%
GlyT1 [3]; rhesus monkey 1, whole brain
  VT (baseline) WB: 23.1
GlyT1 [3]; rhesus monkey 1, whole brain, after SSR504734 1.5 mg/kg
  VT (Blocking (1.5 mg/kg)) WB: 18.6
GlyT1 [3]; rhesus monkey 2, anterior cingulate cortex
  VT (baseline) ACC: 15.5
GlyT1 [3]; rhesus monkey 2, anterior cingulate cortex, after SSR504734 4.5 mg/kg
  VT (Blocking (4.5 mg/kg)) ACC: 9.0
GlyT1 [3]; rhesus monkey 2, anterior cingulate cortex, baseline to blocking with SSR504734 4.5 mg/kg
  % decrease of VT ACC: 41.9%
GlyT1 [3]; rhesus monkey 2, caudate
  VT (baseline) CAU: 17.0
GlyT1 [3]; rhesus monkey 2, caudate, after SSR504734 4.5 mg/kg
  VT (Blocking (4.5 mg/kg)) CAU: 9.2
GlyT1 [3]; rhesus monkey 2, caudate, baseline to blocking with SSR504734 4.5 mg/kg
  % decrease of VT CAU: 45.9%
GlyT1 [3]; rhesus monkey 2, cerebellum
  VT (baseline) CB: 12.8
GlyT1 [3]; rhesus monkey 2, cerebellum, after SSR504734 4.5 mg/kg
  VT (Blocking (4.5 mg/kg)) CB: 9.0
GlyT1 [3]; rhesus monkey 2, cerebellum, baseline to blocking with SSR504734 4.5 mg/kg
  % decrease of VT CB: 29.7%
GlyT1 [3]; rhesus monkey 2, frontal cortex
  VT (baseline) FC: 14.3
GlyT1 [3]; rhesus monkey 2, frontal cortex, after SSR504734 4.5 mg/kg
  VT (Blocking (4.5 mg/kg)) FC: 8.6
GlyT1 [3]; rhesus monkey 2, frontal cortex, baseline to blocking with SSR504734 4.5 mg/kg
  % decrease of VT FC: 39.9%
GlyT1 [3]; rhesus monkey 2, pons
  VT (baseline) Pons: 16.9
GlyT1 [3]; rhesus monkey 2, pons, after SSR504734 4.5 mg/kg
  VT (Blocking (4.5 mg/kg)) Pons: 10.9
GlyT1 [3]; rhesus monkey 2, pons, baseline to blocking with SSR504734 4.5 mg/kg
  % decrease of VT Pons: 35.5%
GlyT1 [3]; rhesus monkey 2, putamen
  VT (baseline) PUT: 15.8
GlyT1 [3]; rhesus monkey 2, putamen, after SSR504734 4.5 mg/kg
  VT (Blocking (4.5 mg/kg)) PUT: 10.1
GlyT1 [3]; rhesus monkey 2, putamen, baseline to blocking with SSR504734 4.5 mg/kg
  % decrease of VT PUT: 36.1%
GlyT1 [3]; rhesus monkey 2, temporal cortex
  VT (baseline) TC: 12.3
GlyT1 [3]; rhesus monkey 2, temporal cortex, after SSR504734 4.5 mg/kg
  VT (Blocking (4.5 mg/kg)) TC: 8.9
GlyT1 [3]; rhesus monkey 2, temporal cortex, baseline to blocking with SSR504734 4.5 mg/kg
  % decrease of VT TC: 27.6%
GlyT1 [3]; rhesus monkey 2, thalamus
  VT (baseline) THA: 15.7
GlyT1 [3]; rhesus monkey 2, thalamus, after SSR504734 4.5 mg/kg
  VT (Blocking (4.5 mg/kg)) THA: 11.9
GlyT1 [3]; rhesus monkey 2, thalamus, baseline to blocking with SSR504734 4.5 mg/kg
  % decrease of VT THA: 24.2%
GlyT1 [3]; rhesus monkey 2, whole brain
  VT (baseline) WB: 12.6
GlyT1 [3]; rhesus monkey 2, whole brain, after SSR504734 4.5 mg/kg
  VT (Blocking (4.5 mg/kg)) WB: 8.5
GlyT1 [3]; rhesus monkey 2, whole brain, baseline to blocking with SSR504734 4.5 mg/kg
  % decrease of VT WB: 32.5%
GlyT1 [4]; baseline + blocking 1.5 mg/kg SSR504734, rhesus monkey 1, one value for all regions
  VND: 16.5
GlyT1 [4]; baseline + blocking 4.5 mg/kg SSR504734, rhesus monkey 2, one value for all regions
  VND: 7.5
GlyT1 [4]; [5]
  % of VND in VT ACC: 59%
  % of VND in VT FC: 52%
  % of VND in VT PUT: 55%
  % of VND in VT TC: 54%
GlyT1 [4]; baseline + blocking (1.5 mg/kg), caudate
  % of VND in VT CAU: 55%
GlyT1 [4]; baseline + blocking (1.5 mg/kg), cerebellum
  % of VND in VT CB: 50%
GlyT1 [4]; baseline + blocking (1.5 mg/kg), pons
  % of VND in VT Pons: 66%
GlyT1 [4]; [6]
  % of VND in VT ACC: 52%
  % of VND in VT FC: 48%
  % of VND in VT PUT: 53%
  % of VND in VT TC: 39%
